Entries after “also recorded” stand apart in the source; their conditions may differ.
Assays:
Assay type in all cases: cell-based
[1] = test system: human synovial cells (HFLS); experiment: Inhibition by an EDG-2 antagonist of LPA-dependent proliferation of human synovial cells (BrdU uptake); settings: LPA 3 μM, compound 0.001 μM-10 μM, FIG. 11-12
Procedure: Proliferating activity of human synovial cells by LPA was measured by BrdU uptaking activity of the cells (HFLS CELL APPLICATION Inc.). In a medium containing serum (Synoviocyte Basal Medium/Synoviocyte Growth Supplement) the cells were suspended and they were sowed in a collagen-coated 96-well plate in a concentration of 1×10^4 cells/well and 24 hours after it was washed with Hanks solution (150 μl) twice and the medium was exchanged with serum-free medium (Synoviocyte Basal Medium) in a volume of 100 μL/well and it was cultured for 24 hours. The compound (b) or compound (c) (each in a concentration of 0.001 μM-10 μM) was simultaneously added with LPA (in a concentration of 3 μM) and 18 hours after, thereto was added BrdU and the uptaking of BrdU was measured.

[2] = test system: human prostate stroma cells; experiment: Inhibition by an EDG-2 antagonist of LPA-dependent proliferation of human prostate stroma cells (BrdU uptake); settings: LPA 1 μM; test compound 1 nM to 10 μM; 24 hours; FIG. 2-4
Procedure: To an MEM-α medium containing 10% FBS (fetal bovine serum), gentamicin (50 μg/ml), amphortercin B (50 ng/mL) and human bFGF and human insulin)(GIBCO Inc.) was added PrSC 5685 in a concentration of 1×10^4 cells/well in a 96-well plate and the mixture was cultured for 24 hours. Afterwards, it was washed with Hanks solution twice and the medium was exchanged with a serum-free medium (MEM-α containing gentamicin (50 μg/ml) and amphotercin B (50 ng/ml)) and cultured for another 24 hours. Thereto was added LPA (final concentration: 1 nM-10 μM) and at the same time was added BrdU and the mixture was cultured for 24 hours. The same amount of physiological saline was added in place of LPA as a control.
Uptaking of BrdU was measured by using cell proliferation ELISA kit (Amersham Inc.). Specifically, the cells were treated with BrdU and the cultured serum was discarded and to each well was added a cell anchorage/DNA denaturation solution (150 μl) and the mixture was allowed to stand for 30 minutes. The cell anchorage/DNA denaturation solution was removed and to the mixture was added Blocking buffer (150 μl) and the mixture was allowed to stand for another 30 minutes. Next the Blocking buffer was removed and thereto was added anti-BrdU antibody solution (100 μL) labeled with peroxidase and the mixture was allowed to stand for 30 minutes. Next the antibody solution was removed and the mixture was washed with Wash buffer (PBS(−); 150 μl) three times, moisture was removed enough by tapping and thereto was added a solution of a reaction substance (3,3′,5,5′,-tetramethylbenzidine, TMB 15% solution in DMSO; 100 μL). Thereto was added 2N solution of sulfuric acid (25 μL) and the absorbance was measured at 450 nm by microplate reader SPECTRAMAXPRO.
Human-prostate stroma cells were cultured by the method described in example 2, just before adding LPA the test compound (final concentration: 1 nM to 10 μM) were added. […] After adding LPA was added BrdU and it was cultured for another 24 hours and the uptaking activity of BrdU was measured.

[3] = test system: human airway smooth muscle cells; experiment: Inhibition by an EDG-2 antagonist of LPA-dependent proliferation of human airway smooth muscle cells (BrdU uptake); settings: LPA 3 μM; test compound 1 nM-10 μM; 6 hours; FIG. 6-7
Procedure: BSMC was sowed to an MEM-α medium (GIBCO) containing 10% FBS (fetal bovine serum), gentamicin (50 μg/ml), amfortercin B (50 ng/ml), human bFGF and human insulin in a concentration of 1×10^4 cells/well in a 96-well plate and the mixture was cultured for 24 hours. Afterwards, it was washed with Hanks solution twice, and the medium was exchanged with a serum-free medium (an MEM-α containing gentamicin (50 μg/ml) and amphortecin B (50 ng/ml)) and the mixture was cultured for another 24 hours. Thereto was added LPA (final concentration: 3 nM-10 μM) and simultaneously was added BrdU and the mixture was cultured for another 6 hours. The same amount of physiological saline was added as a control in place of LPA.
Uptaking of BrdU was measured by using cell proliferation ELISA kit (Amersham Inc.). Specifically, the cells were treated with BrdU and the cultured serum was discarded and to each well was added a cell anchorage/DNA denaturation solution (150 μl) and the mixture was allowed to stand for 30 minutes. […] Thereto was added 2N solution of sulfuric acid (25 μL) and the absorbance was measured at 450 nm by microplate reader SPECTRAMAXPRO.
By the method shown in example 4 BSMC was cultured and the test compound (final concentration: 1 nM-10 μM) was added just before adding LPA. […] After adding LPA, BrdU was added and it was cultured for 6 hours and the uptaking activity of BrdU was measured.

[4] = test system: mouse precursor fat cells (3T3-L1); experiment: Inhibition by an EDG-2 antagonist of LPA-dependent proliferation of mouse precursor fat cells (BrdU uptake); settings: compound 0.001 μM-10 μM, FIG. 9-10
Procedure: Proliferating activity of mouse precursor fat cells by LPA was measured by BrdU uptaking activity of the cells (3T3-L1). In a medium containing serum (DMEM/10% FBS (50 μg/mL); gentamicin (50 ng/mL); amphotericin B) the cells were suspended and the suspension was sowed in a concentration of 1×10^4 cells/well in a 96-well plate and it was cultured for 24 hours, and then it was washed with Hanks solution (150 μL) twice and the medium was exchanged with serum-free medium (DMEM (50 μg/mL); gentamicin (50 ng/mL); amphotericin B) and it was cultured for another 24 hours. Thereto was added the compound (b) or compound (c) in a final concentration of 0.001 μM-10 μM and 20 hours later thereto was added BrdU and 24 hours later, the uptaking of BrdU was measured.

[5] = target: T1, human EDG-2 (Homo sapiens, UniProt Q92633); experiment: Evaluation of EDG-2 antagonistic activity by monitoring the change of intracellular calcium ion concentration; settings: CHO cells overexpressing human EDG-2; inhibition of intracellular calcium increase by LPA (100 nM); Fura2
T1 construct: expressed in transfected cells; host or cells: Chinese hamster ovary (CHO) cells
T1 sequence (Q92633 whole entry): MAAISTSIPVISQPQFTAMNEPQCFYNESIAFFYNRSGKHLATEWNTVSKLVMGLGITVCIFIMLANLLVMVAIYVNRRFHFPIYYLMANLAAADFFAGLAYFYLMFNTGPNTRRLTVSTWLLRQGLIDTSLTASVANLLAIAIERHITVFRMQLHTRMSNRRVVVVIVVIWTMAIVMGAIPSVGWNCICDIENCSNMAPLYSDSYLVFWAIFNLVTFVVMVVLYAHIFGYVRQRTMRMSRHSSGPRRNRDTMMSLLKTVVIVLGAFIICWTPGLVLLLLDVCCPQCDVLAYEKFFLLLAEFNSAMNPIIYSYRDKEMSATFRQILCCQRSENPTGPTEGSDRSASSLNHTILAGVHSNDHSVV
Procedure: Chinese hamster ovary (CHO) cells which overexpressed human EDG-2 gene were cultured in Ham's F12 medium (GIBCO BRL) containing 10% FBS (fetal bovine serum), penicillin/streptomycin and blasticidin (5 μg/ml). Thus cultured cells were incubated in Fura2 (5 μM)-AM solution [Ham's F12 medium containing FBS (10%), HEPES buffer (20 mM, pH 7.4) and probenecid (2.5 mM)]. Next, it was washed with Hanks solution containing HEPES buffer (20 mM, pH 7.4) and probenecid (2.5 mM) once, and immersed into the Hanks solution. Plates were set in fluorescent drug screening system and intracellular calcium ion concentration was measured for 30 seconds with no stimulation. Five minutes after adding thereto a compound to be tested (final concentration: 1 nM to 10 μM, in dimethylsulfoxide (DMSO) solution), the increase of intracellular calcium ion concentrations before and after the addition of LPA (excitation wave length: […]; fluorescent wave length: 500 nm) were measured every 3 seconds. 1-oleoyl (18:1)-LPA (Sigma) or 1-linolenoyl (18:3)-LPA was used as LPA. 1-linolenoyl (18:3)-LPA was synthesized and purified by either of the following two methods. […]

Row | IC50 [5] | SMILES | inhibition of proliferation of human synovial cells by stimulation of LPA (BrdU uptaking activity) [1] | inhibition of proliferation of human prostate stroma cells by LPA stimulation (BrdU uptaking activity) [2] | inhibition of proliferation of human airway smooth muscle cells by LPA stimulation (BrdU uptaking activity) [3] | inhibition of proliferation of mouse precursor fat cells by LPA stimulation (BrdU uptaking activity) [4]
1 | 1500 nM | COC(=O)CCSCc1ccc(-c2onc(C)c2NC(=O)OC(C)c2ccccc2Cl)cc1 (stereo not drawn) [compound (b), methyl 3-({4-[4-({[1-(2-chlorophenyl)ethoxy]carbonyl}amino)-3-methyl-5-isoxazolyl]benzyl}sulfanyl)propanoate, reference compound] | inhibits the proliferation effect of normal human precursor fat cells depending on the concentration; also recorded: inhibited the proliferation of human synovial cells by stimulation of LPA | suppresses the proliferation effect of normal human prostate stroma cells by LPA, depending on the concentration | inhibits the proliferation effect of normal human airway smooth muscle cells induced by LPA depending on the concentration | inhibits the proliferation effect of normal human precursor fat cells induced by LPA depending on the concentration; also recorded: inhibited the proliferation of mouse precursor fat cells by LPA stimulation depending on the concentration
2 | – | COc1ccc(OC)c(CCN(CCC(=O)O)C(=O)c2ccccc2-c2ccccc2C(=O)NCc2cccnc2)c1.Cl [compound (a), 3-(N-((2-(2-((pyridin-3-ylmethylamino)carbonyl)phenyl)phenyl)carbonyl)-N-(2-(2,5-dimethoxyphenyl)ethyl)amino)propanoic acid hydrochloride] | inhibited the proliferation of human synovial cells by stimulation of LPA | suppresses the proliferation effect of normal human prostate stroma cells by LPA, depending on the concentration | suppresses the proliferation effect of normal human airway smooth muscle cells by LPA, depending on the concentration | –
3 | 190 nM | COc1cc(C(=O)N(CCCc2ccccc2)Cc2ccc(-c3ccccc3CC(=O)O)cc2)cc(OC)c1OC [compound (c), (4′-{[(3-phenylpropyl)(3,4,5-trimethoxybenzoyl)amino]methyl}-2-biphenylyl)acetic acid] | inhibits the proliferation effect of normal human synovial membrane depending on the concentration | suppresses the proliferation effect of normal human prostate stroma cells by LPA, depending on the concentration | – | inhibits the proliferation effect of normal human precursor fat cells induced by LPA depending on the concentration; also recorded: inhibited the proliferation of mouse precursor fat cells by LPA stimulation depending on the concentration

Source: patent US7300917B2, “Remedy for chronic disease” (Ono Pharmaceuticals Co., Ltd., priority 2002, dated 2007)
